Assay results: patent US12054509B2, “Antimicrobial compounds, compositions, and uses thereof” (Lakewood Amedex, Inc., priority 2017, dated 2024)

How the values were obtained:
[1] = system: Helicobacter pylori SS1 (CagA+, VacA+); assay: Helicobacter pylori SS1 infection in C57BL6 mice, bacterial stomach titers; assay type: in vivo
Excerpt: The mouse strain used in this study is C57BL6 ranging from 5-6 weeks in age and 18-22 grams in weight. Mice are housed five to a cage with free access to food and water in accordance with NIB guidelines.
A bacterial strain of Helicobacter pylori SS1 (CagA+, VacA+) is adapted for the mouse model from a human clinical isolate and validated in this infection model.
At 6 days prior to infection, a frozen stock is streaked onto one to two Columbia 5% sheep blood agar plates, and the plates are microaerophilically incubated for 72 hours at 37° C. After 72 hours, the plate growth is subcultured onto five Columbia 5% sheep blood agar plates and is incubated as before. After another 72 hours of incubation, the plates are removed, and the plate growth is suspended in sterile 0.9% saline to an OD of 1.5-2.0 at 530 nm. This OD is approximately equal to 1.0e+09 CFU/mL, which is used to orally infect the mice on all 3 infection days. To infect mice, the mice are orally dosed 0.25 mL of the 1.0e+09 CFU/mL via a 20-22 G gavage needle. Mice need to be fasted only before the first infection.
At 1 week post-infection, mice are treated with Nu-8. Multiple dose antibiotic therapies are administered orally at 0.2 mL/dose. Antibiotics are administered 2 times per day and continued for 7 days. The control group is administered the vehicle alone.
Food is removed from cages 18 hours prior to euthanizing animals and each cage is clearly labeled that the animals are being experimentally fasted. Mice are euthanized (CO2 & cervical dislocation). […] The excised stomach is placed into a sterile petri dish and the luminal contents are rinsed away with sterile 1×PBS. Each rinsed stomach is placed into a 14-mL Falcon tube containing 2 mL of 1×PBS and stored on ice. Each stomach is homogenized, 10-fold serial diluted in 1×PBS, spot plated onto Columbia agar with 3.5% laked horse blood±the DENT selective antibiotic supplement, and microaerophilically incubated for 5 days at 37° C. Then, colonies are counted.
Nu-8 is administered at various doses (mg/kg), orally, twice-a-day for 7 days. The formulations, concentration and dose volumes for treatment is established prior to dosing. The positive control group consists of a triple therapy regimen (omeprazole, amoxicillin, and clarithromycin). Negative control used dosing solution without drugs.

[2] = system: Escherichia coli (strain CFT073, TPPS 1041); assay: Urinary tract infection model in BALB/c mice, confirmatory efficacy (Example 11); assay type: in vivo; details: for bacterial burden (bladder): 20 minutes post-treatment
Excerpt: Female BALB/c mice (20-22 g) ordered from Envigo are acclimated to housing conditions and handled in accordance with Animal Use Protocol (AUP) number TP-08. Animals are fed irradiated Teklad Global 29 18 Rodent Diet and water ad libitum. Mice are housed 6/cage in static cages with irradiated ⅛″ Teklad corn cobbedding 7902 inside bioBubble® clean rooms that provide H.E.P.A filtered air into the bubble environment at 100 complete air changes per hour. The environment is controlled to a temperature range of 74°±4° F. and a humidity range of 30-70%. All procedures carried out in this experiment are conducted in compliance with the laws, regulations, and guidelines of the National Institutes of Health and with the approval of the TransPharm Preclinical Solutions Animal Care and Use Committee.
A clinical isolate of Escherichia coli (strain CFT073, TPPS 1041) are procured from the University of Michigan.
The organism is grown overnight at 37° C. in ambient atmosphere on trypticase soy agar plates supplemented with 5% sheep blood cells. The culture is aseptically swabbed and transferred to tubes of trypticase soy broth. The optical density is determined at 600 nm. The culture is diluted to provide an inoculum of approximately 7.5 login CFU per mouse in a volume of 30 μL. Instillation of the bacterial challenge constituted time 0 hour for the study. Inoculum counts are estimated before inoculation by optical density and confirmed after inoculation by dilution and back counts.
One hour prior to bacterial challenge, water is removed from animal cages. On Day 0 at 0 hours, mice are anesthetized using isoflurane and urine is expressed from the bladder by applying gentle pressure to the abdomen with the thumb. Mice are infected with bacteria via transurethral injection in a volume of 30 μL. Water is returned to the cages immediately following the challenge. Challenge is performed in a BL2 surgical suite.
Nu-8 (Test article) is prepared immediately before each dosing. Nu-8 is dissolved in sterile saline and adjusted to pH 3.5 with phosphoric acid. At 23 hours post-challenge, water is removed from animal cages. One hour later, mice are anesthetized using isoflurane and residual urine is expressed from the bladder. Mice are treated with test article or controls via transurethral dosing in a volume of 30 μL according to TABLE 9 (showing Animal Challenge and Treatment Schedule). All treatments are administered in a BSL2 surgical suite.
Immediately following treatment administration, the urethral opening is occluded using Locktite gel superglue. One drop of glue is placed at the urethral opening and the opening is held together for 5-10 seconds using tissue forceps to ensure the urethral opening is occluded and the adhesive is dry. Animals remained under anesthetic following urethral occlusion. […]

## CCCCOP(=O)(O)OC[C@H]1O[C@@H](n2ccc(N)nc2=O)C[C@@H]1OP(=O)(O)OCCCC [Nu-8, sodium ((2R,3S,5R)-5-(4-amino-2-oxopyrimidin-1(2H)-yl)-3-((butoxyoxidophosphor-yl)oxy)tetrahydrofuran-2-yl)methyl butyl phosphate]
[1]; 0.2 mg (1 mg/mL, 0.2 mL) PO bid 7 days, +7 Days
  mean bacterial stomach titer: 5.62 log10 CFU
[1]; 0.2 mg (1 mg/mL, 0.2 mL) PO bid 7 days, +14 Days
  mean bacterial stomach titer: 6.2 log10 CFU
[1]; 1.0 mg (5 mg/mL, 0.2 mL) PO bid 7 days, +7 Days
  mean bacterial stomach titer: 5.21 log10 CFU
[1]; 1.0 mg (5 mg/mL, 0.2 mL) PO bid 7 days, +14 Days
  mean bacterial stomach titer: 5.67 log10 CFU
[1]; 2 mg (10 mg/mL, 0.2 mL) PO bid 7 days, +7 Days
  mean bacterial stomach titer: 4.74 log10 CFU
[1]; 2 mg (10 mg/mL, 0.2 mL) PO bid 7 days, +14 Days
  mean bacterial stomach titer: 5.81 log10 CFU
[2]; 205 mg/kg pH 3.5 transurethral
  bacterial burden (bladder): 6.5 log 10
[2]; 410 mg/kg pH 3.5 transurethral
  bacterial burden (bladder): 5.0 log 10
[2]; 820 mg/kg pH 3.5 transurethral, 10 minutes post-treatment
  average bladder CFU burden: 6.3 log 10
[2]; 820 mg/kg pH 3.5 transurethral
  bacterial burden (bladder): 5.4 log 10
